According to patent US9266835B2, “Quinoline derivatives useful as CB-1 inverse agonists” (JANSSEN PHARMACEUTICA NV, priority 2014, dated 2016):

How the values were obtained:
[1] = molecular target: Human CB1R (Cannabinoid receptor 1) (Homo sapiens (Human), UniProt P21554); test: CB-1 in vitro cAMP assay (HTRF), inverse agonism; assay type: cell-based; conditions: mean where tested more than once
[2] = molecular target: Human CB2R (Cannabinoid receptor 2) (Homo sapiens (Human), UniProt P34972); test: CB-2 in vitro cAMP assay (HTRF), inverse agonism; assay type: cell-based; conditions: mean where tested more than once
Human CB2R (Cannabinoid receptor 2), sequence (P34972 whole entry): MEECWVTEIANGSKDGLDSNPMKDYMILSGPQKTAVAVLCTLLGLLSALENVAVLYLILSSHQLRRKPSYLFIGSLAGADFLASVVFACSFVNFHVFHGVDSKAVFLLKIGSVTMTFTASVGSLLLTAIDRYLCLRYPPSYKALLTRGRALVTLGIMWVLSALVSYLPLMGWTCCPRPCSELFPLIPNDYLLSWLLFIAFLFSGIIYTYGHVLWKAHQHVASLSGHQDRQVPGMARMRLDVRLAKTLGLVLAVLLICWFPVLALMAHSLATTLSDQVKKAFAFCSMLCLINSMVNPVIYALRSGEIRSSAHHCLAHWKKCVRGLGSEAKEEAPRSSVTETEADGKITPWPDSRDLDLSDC

Human CB1R (Cannabinoid receptor 1), sequence (P21554 whole entry): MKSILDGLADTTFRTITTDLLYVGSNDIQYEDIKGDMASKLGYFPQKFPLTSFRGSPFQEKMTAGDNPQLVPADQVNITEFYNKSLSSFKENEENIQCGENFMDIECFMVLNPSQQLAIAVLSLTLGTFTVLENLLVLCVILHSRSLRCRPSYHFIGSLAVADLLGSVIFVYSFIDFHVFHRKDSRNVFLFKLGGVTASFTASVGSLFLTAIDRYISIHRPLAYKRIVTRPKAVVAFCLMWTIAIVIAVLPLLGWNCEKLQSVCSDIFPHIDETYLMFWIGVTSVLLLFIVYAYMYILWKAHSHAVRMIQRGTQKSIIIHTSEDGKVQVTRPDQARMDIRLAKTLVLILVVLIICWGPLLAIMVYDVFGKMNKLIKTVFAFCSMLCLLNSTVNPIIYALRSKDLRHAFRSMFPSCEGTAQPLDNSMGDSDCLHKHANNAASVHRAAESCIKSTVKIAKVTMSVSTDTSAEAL

SMILES | EC50 [1] [µM] | EC50 [2] [µM]
O=c1cc(NC2CCN(S(=O)(=O)N3CCCC3)CC2)c2cc(C(c3ccc(Cl)cc3)c3ccc(Cl)cc3)ccc2[nH]1 [Compound 81, 6-(bis(4-chlorophenyl)methyl)-4-((1-(pyrrolidin-1-ylsulfonyl)piperidin-4-yl)amino)quinolin-2(1H)-one] | 0.015 | > 10
O=c1cc(/C=C/c2ccc(C(F)(F)F)cc2)c2cc(C(c3ccc(Cl)cc3)c3ccc(Cl)s3)ccc2[nH]1 (stereo not shown) [Compound 29, 6-[(4-Chlorophenyl)(5-chlorothiophen-2-yl)methyl]-4-{(E)-2-[4-(trifluoromethyl)phenyl]-ethenyl}quinolin-2(1H)-one] | 0.759 | > 10
O=c1cc(/C=C/c2cccc(F)c2)c2cc(C(c3ccc(Cl)cc3)c3ccc(Cl)s3)ccc2[nH]1 (stereo not shown) [Compound 30, 6-[(4-Chlorophenyl)(5-chlorothiophen-2-yl)methyl]-4-[(E)-2-(3-fluorophenyl)ethenyl]quinolin-2(1H)-one] | 1.38 | > 10
COc1ccc(C(O)(c2ccc(Cl)cc2)c2ccc3[nH]c(=O)cc(NC4CCN(S(=O)(=O)C(F)(F)F)CC4)c3c2)cc1 (stereo not shown) [Compound 51, 6-[(4-chlorophenyl)(hydroxy)(4-methoxyphenyl)methyl]-4-[[1-(trifluoromethane)sulfonylpiperidin-4-yl]amino]-1,2-dihydroquinolin-2-one] | 0.029 | 8.28

Second part, the compound after the results:

EC50 [1] [µM] | EC50 [2] [µM] | SMILES
0.022 | 7.69 | O=c1cc(NC2CCN(S(=O)(=O)C(F)(F)F)CC2)c2cc(C(c3ccc(O)cc3)c3ccc(Cl)cc3)ccc2[nH]1 (stereo not shown) [Compound #66, 6-((4-chlorophenyl)(4-hydroxyphenyl)methyl)-4-((1-((trifluoromethyl)sulfonyl)piperidin-4-yl)amino)quinolin-2(1H)-one]
0.081 | 7.1 | CCOC(=O)CCCCOc1cc(C(c2ccc(Cl)cc2)c2ccc(Cl)cc2)cc2c(NC3CCN(S(=O)(=O)C(F)(F)F)CC3)ccnc12 [Compound 540, ethyl 5-((6-(bis(4-chlorophenyl)methyl)-4-((1-((trifluoromethyl)sulfonyl)piperidin-4-yl)amino)quinolin-8-yl)oxy)pentanoate]
5.12 | > 10 | O=C(O)COc1ccc(Nc2cc(=O)[nH]c3ccc(C(c4ccc(Cl)cc4)c4ccc(Cl)cc4)cc23)cc1 [Compound 109, 2-(4-((6-(bis(4-chlorophenyl)methyl)-2-oxo-1,2-dihydroquinolin-4-yl)amino)phenoxy)acetic acid]
0.011 | 6.6 | O=c1cc(NC2CCN(S(=O)(=O)C(F)(F)F)CC2)c2cc(C(c3ccc(Cl)cc3)c3ccc(Cl)nc3)ccc2[nH]1 (stereo not shown) [Compound #72, 6-[(4-chlorophenyl)(6-chloropyridin-3-yl)methyl]-4-[[1-(trifluoromethane)sulfonylpiperidin-4-yl]amino]-1,2-dihydroquinolin-2-one]
0.036 | 3.8 | COc1cc(NC2CCN(S(=O)(=O)C(F)(F)F)CC2)c2cc(C(c3ccc(Cl)cc3)c3ccc(Cl)cc3)cc(/C=C/CO)c2n1 [Compound 549, (2E)-3-[6-[bis(4-chlorophenyl)methyl]-2-methoxy-4-[[1-(trifluoromethane)sulfonylpiperidin-4-yl]amino]quinolin-8-yl]prop-2-en-1-ol]
0.079 | 8.1 | NC(=O)Cc1ccc(Nc2cc(=O)[nH]c3ccc(C(c4ccc(Cl)cc4)c4ccc(Cl)cc4)cc23)cc1 [Compound 126, 2-[4-({6-[Bis(4-chlorophenyl)methyl]-2-oxo-1,2-dihydroquinolin-4-yl}amino)phenyl]acetamide]
5.48 | > 10 | OC(c1ccc(Cl)cc1)(c1ccsc1)c1ccc2nccc(/C=C/c3ccccc3)c2c1 (stereo not shown) [Compound 507, (4-Chlorophenyl){4-[(E)-2-phenylethenyl]quinolin-6-yl}thiophen-3-ylmethanol]
